Measured values taken from the supplement of paper PMC13380429.

Assays:
Conditions in all cases: 72 h
[1] = test system: U2OS; assay: relative viability EC50 (midpoint between 100% and the lowest measured viability); higher = less toxic
[2] = test system: Calu-3; assay: as above
[3] = test system: Vero E6; assay: as above
[4] = test system: Caco-2; assay: as above
[5] = test system: HepG2; assay: as above
[6] = test system: U2OS; assay: cell viability relative to DMSO; higher = less toxic
[7] = test system: Calu-3; assay: as above
[8] = test system: Vero E6; assay: as above
[9] = test system: Caco-2; assay: as above
[10] = test system: HepG2; assay: as above
[11] = test system: U2OS; assay: drug sensitivity score (DSS) for viability; higher = more toxic; extreme values may be limits of the assay
[12] = test system: Calu-3; assay: as above
[13] = test system: Vero E6; assay: as above
[14] = test system: Caco-2; assay: as above
[15] = test system: HepG2; assay: as above

SMILES	relative viability EC50 [1]	relative viability EC50 [2]	relative viability EC50 [3]	relative viability EC50 [4]	relative viability EC50 [5]	cell viability ([6]; 1 nM)	cell viability ([6]; 10 nM)	cell viability ([6]; 100 nM)	cell viability ([6]; 1000 nM)	cell viability ([6]; 10000 nM)	cell viability ([7]; 1 nM)	cell viability ([7]; 10 nM)	cell viability ([7]; 100 nM)	cell viability ([7]; 1000 nM)	cell viability ([7]; 10000 nM)	cell viability ([8]; 1 nM)	cell viability ([8]; 10 nM)	cell viability ([8]; 100 nM)	cell viability ([8]; 1000 nM)	cell viability ([8]; 10000 nM)	cell viability ([9]; 1 nM)	cell viability ([9]; 10 nM)	cell viability ([9]; 100 nM)	cell viability ([9]; 1000 nM)	cell viability ([9]; 10000 nM)	cell viability ([10]; 1 nM)	cell viability ([10]; 10 nM)	cell viability ([10]; 100 nM)	cell viability ([10]; 1000 nM)	cell viability ([10]; 10000 nM)	drug sensitivity score [11]	drug sensitivity score [12]	drug sensitivity score [13]	drug sensitivity score [14]	drug sensitivity score [15]
CCN(CC)CCOCCOC(=O)C(CC)(CC)c1ccccc1 [oxelaidin]	> 10 µM	> 10 µM	> 10 µM	> 10 µM	> 10 µM	96.9%	92.6%	94.3%	107%	101%	99%	95.8%	94.8%	94.5%	99.7%	94.2%	95.9%	102%	99.9%	104%	106%	85.5%	95.9%	107%	97.3%	104%	103%	104%	95.6%	87.1%	0	0	0	0	0.3
CCn1cc(C(=O)O)c(=O)c2cc(F)c(N3CCN(C)CC3)cc21 [pefloxacin]	> 10 µM	> 10 µM	> 10 µM	> 10 µM	> 10 µM	104%	94.8%	98.4%	96%	96%	100%	97.8%	97.2%	83.3%	99%	96.8%	101%	94.2%	95.3%	90.4%	94.5%	80.2%	104%	89.5%	94.1%	88.6%	100%	106%	99.3%	94.6%	0	0	0	0	0
O=c1[nH]c2ccccc2c(=O)n1CCCN1CCN(c2ccccc2)CC1 [pelanserin]	> 10 µM	> 10 µM	> 10 µM	> 10 µM	> 10 µM	97%	104%	95.6%	95.2%	94.8%	94.5%	96.2%	103%	102%	116%	104%	105%	102%	105%	95.5%	101%	102%	94%	103%	91.7%	91.1%	93%	95.7%	107%	93.6%	0	0	0	0	0
O=C(O)c1ccccc1C(=O)Nc1ccc(S(=O)(=O)Nc2nccs2)cc1 [phthalylsulfathiazole]	> 10 µM	> 10 µM	> 10 µM	> 10 µM	> 10 µM	97.9%	98%	102%	96.8%	99.7%	105%	86.8%	106%	107%	107%	92.2%	98.9%	94.9%	94.5%	108%	106%	93.9%	94.1%	102%	93.7%	87.5%	107%	115%	111%	112%	0	0	0	0	0
O=C1CC[C@@H](C(=O)N2CSC[C@H]2C(=O)O)N1 [pidotimod]	> 10 µM	> 10 µM	> 10 µM	> 10 µM	> 10 µM	93.9%	93.3%	101%	99.9%	106%	97.4%	104%	97.3%	96%	102%	97.8%	101%	94.8%	101%	107%	102%	91.6%	106%	102%	92.7%	98.4%	101%	101%	105%	106%	0	0	0	0	0
CN[C@@H](C)CC1CCCCC1 [propylhexedrine]	> 10 µM	> 10 µM	> 10 µM	> 10 µM	> 10 µM	104%	99.6%	100%	99.2%	100%	97.4%	104%	104%	90.2%	97.9%	99.2%	110%	106%	104%	95.7%	88%	111%	86%	79.4%	102%	102%	101%	99.3%	97.8%	94.1%	0	0	0	0	0
CCC(=O)NCC[C@@H]1CCc2ccc3c(c21)CCO3 [ramelteon]	> 10 µM	> 10 µM	> 10 µM	> 10 µM	> 10 µM	99.5%	98.4%	101%	96.1%	98.7%	106%	90.7%	100%	86.3%	98.4%	112%	110%	106%	100%	99.5%	102%	96.8%	97.1%	101%	95.6%	105%	112%	105%	108%	89%	0	0	0	0	0
CCn1nc(C)c2c1C(c1ccccc1)=NCC(=O)N2 [ripazepam]	> 10 µM	> 10 µM	> 10 µM	> 10 µM	> 10 µM	96.4%	99.1%	93.2%	102%	98.2%	97.4%	102%	95.6%	109%	95.8%	95.6%	99.9%	104%	100%	97.1%	96.9%	103%	104%	101%	124%	106%	100%	98.9%	92.2%	113%	0	0	0	0	0
CN(C)CCc1c[nH]c2ccc(Cn3cncn3)cc12 [rizatriptan]	> 10 µM	> 10 µM	> 10 µM	> 10 µM	> 10 µM	99%	106%	96.5%	98.6%	96.5%	96.5%	107%	99.8%	97.3%	99.1%	101%	94.8%	98.7%	99.3%	98.8%	91.9%	102%	101%	97.2%	87.7%	99%	93.5%	102%	92.8%	104%	0	0	0	0.2	0
CCCCc1ccc(O)cc1O [rucinol]	> 10 µM	> 10 µM	> 10 µM	> 10 µM	> 10 µM	101%	99%	99.8%	104%	96.7%	101%	98%	83.4%	102%	83.8%	111%	84.9%	106%	91.8%	103%	102%	95.3%	83.5%	114%	106%	110%	87.5%	107%	92.5%	81.5%	0	0.1	0	0	1.3
OC[C@H]1O[C@@H](OCCc2ccc(O)cc2)[C@H](O)[C@@H](O)[C@@H]1O [salidroside]	> 10 µM	> 10 µM	> 10 µM	> 10 µM	> 10 µM	102%	93.9%	96%	103%	101%	96%	106%	102%	87.2%	113%	95.5%	94.8%	93.2%	99.8%	107%	103%	92.2%	92.3%	106%	104%	91.4%	97%	109%	87%	104%	0	0	0	0	0
C[C@H](Cc1cc2c(c(C(N)=O)c1)N(CCCO)CC2)NCCOc1ccccc1OCC(F)(F)F [silodosin]	> 10 µM	> 10 µM	> 10 µM	> 10 µM	> 10 µM	101%	93.5%	98.9%	95.6%	97.6%	96%	87.2%	97%	101%	93.6%	93.9%	102%	97.1%	101%	108%	91.6%	93.1%	106%	92%	88.7%	95%	97.7%	103%	102%	99.9%	0	0	0	0	0
CCOc1ccc(Cc2cc([C@@H]3O[C@H](SC)[C@@H](O)[C@H](O)[C@H]3O)ccc2Cl)cc1 [sotagliflozin]	> 10 µM	> 10 µM	> 10 µM	> 10 µM	> 10 µM	97.7%	95%	100%	97.6%	95.4%	91.4%	94.1%	112%	97.7%	99.8%	94.6%	97.2%	95.4%	95.8%	102%	98.3%	102%	100%	92.5%	91.1%	90.3%	101%	98.4%	101%	91.8%	0	0	0	0	0
CC(=O)N(c1onc(C)c1C)S(=O)(=O)c1ccc(N)cc1 [sulfisoxazole-acetyl]	> 10 µM	> 10 µM	> 10 µM	> 10 µM	> 10 µM	101%	97.5%	101%	97.7%	98.7%	96.7%	102%	93.6%	102%	102%	104%	107%	103%	96.9%	98.8%	109%	106%	110%	102%	90.9%	96.9%	105%	114%	103%	97.4%	0	0	0	0	0
